Laboratory results taken from patent US20240139185A1, “COMPOUNDS THAT PARTICIPATE IN COOPERATIVE BINDING AND USES THEREOF” (Revolution Medicines, Inc., priority 2018, published 2024).
pEC50, pKd: −log10 of the molar value.

Key:
[1] = target: T1, BRAF-GTP-KRAS-G12C complex (Homo sapiens, UniProt P01116+P62937, G12C); assay: KRAS-BRAF complex disruption through competition with CYPA-compound by TR-FRET; conditions: biochemical BRAF-KRAS G12C-GTP disruption assay EC50, with CYPA
T1 construct: 50 nM of His6-KRas G12C-GTP (1-169); 500 nM of tagless CypA (1-165)
Protocol: In this example, TR-FRET was used to measure the compound-facilitated disruption of a KRAS-BRAF complex. A mixture of tagless Cyclophilin A, His6-KRAS G12C-GMP-PNP, and GST-BRAF RAS binding domain was added to a 384-well assay plate containing compounds of the invention and incubated for 3 hours. A mixture of Anti-His Eu-W1024 and anti-GST allophycocyanin was then added and the reaction was incubated for an additional 1.5 hours. TR-FRET signal was read on an EnVision microplate reader (Perkin Elmer, Ex 320 nm, Em 665/615 nm). Compounds that facilitate disruption of a KRAS_BRAF complex were identified as those eliciting a decrease in the TR-FRET ratio relative to DMSO control wells. To determine the presenter-dependence of the compound-mediated KRAS-BRAF complex disruption, Cyclophilin A was left out of the initial incubation (see Table 5). To determine G12C specificity of the compound-mediated KRAS-BRAF complex disruption, wild-type KRAS was used instead of G12C KRAS (see Table 5).
Reagents and Instrument • Tagless CYPA; 519 μM in PBS buffer, pH 7.4 • GST BRAF; 110 μM in PBS buffer, pH 7.4 • His6-KRASG12C-GMP-PNP; 50 μM in PBS buffer, pH 7.4 • His6-KRASWT-GMP-PNP; 40 μM in PBS buffer, pH 7.4 • Anti-His Eu-W1024 (LANCE® Eu-W1024; Perkin Elmer) • Anti-GST allophycocyanin (Anti-GST IgG conjugated to SureLight®-Allophycocyanin; Perkin Elmer; Product Number AD0059G) • Test compounds, 10 mM in 100% DMSO • EnVision (Perkin Elmer) • Combi MultiDrop liquid dispenser with 8-channel small volume cassette • 384-well ProxiPlate (black)
Experimental Protocol • 1. Use Mosquito to dispense 100 nL/well of compounds (varying concentration in […]) into 384-well black ProxiPlate to make assay-ready-plate (ARP). • 2. Make assay buffer containing 25 mM Hepes pH 7.3, 100 mM NaCl, 5 mM MgCl2, 0.05% BSA, and 0.002% Tween-20. • 3. Make PRE-MIX A: delivers final concentrations of 50 nM of His6-KRas G12C-GTP (1-169) and 500 nM of tagless CypA (1-165) in assay buffer. • a. For presenter dependence experiments, omit addition of tagless CypA • b. For G12C/wt specificity experiments, substitute His6-KRas WT-GTP (1-169) for His6-KRas G12C-GTP (1-169) • 4. Use MultiDrop Combi to dispense PRE-MIX A into ARP, 7 μl/well. Incubate 3 hr at room temperature. • 5. Make PRE-MIX B: delivers final concentrations of 10 nM of anti-His Eu-W1024 and 50 nM of anti-GST APC. • 6. Use MultiDrop Combi to dispense PRE-MIX B into ARP, 3 μl/well. Shake briefly on Combi and incubate 1.5 hr at room temperature. • 7. Read on EnVision (Ex: 320 nm; Em1: 615 nm; Em2: 665 nm). • 8. Data is processed using Dotmatics. Curves are fit using a 4-parameter non-linear fit to determine the EC50 value for formation of the ternary complex.

[2] = target: cyclophilin A (CYPA) (Homo sapiens, UniProt P62937); assay: CYPA-compound binary complex formation by SPR; conditions: read-out: CYPA Binding Affinity
Protocol: In order to determine the affinity of compounds of the invention for cyclophilin A (CYPA), we employed surface plasmon resonance binding analysis using the following reagents, instruments and protocol as supplied by the instrument manufacturer.
Reagents and Instrument • 1. Instrument: Biacore S200 (GE Healthcare Life Sciences) • 2. Running buffer: 1×HBS-P+ (1×HBS supplemented with 0.05% Tween20), pH7.4, and 2% DMSO. • 3. Ligand: CypA-Avi • 4. Analyte: Serial dilution of WDB compounds from 50 μM to 0 μM, 2-fold dilution, 10 points (10 mM stock concentration). • 5. Sensor kit: Biotin CAPture Kit (BR28-9202-34, GE Healthcare Life Sciences) • 6. Regeneration buffer: 1 volume of 1 M NaOH and 3 volumes of 8 M guanidine hydrochloride (supplied with CAPture Kit, BR28-9202-34, GE Healthcare Life Sciences)
Experimental Procedure • 1. Capture of CAPreagent: 2 μl/min for 60 seconds. • 2. Immobilization of ligand CypA: Use Fc1 as the reference cell; immobilize CypA at 4 μg/ml using 5 μl/min flowrate on Fc2 (60s), Fc3 (80s) and Fc4 (80s), respectively. • 3. Binding of analytes: Inject WDB compound dilutions sequentially at 50 μl/min for association of 60 seconds. And then let it dissociates in buffer at 50 μl/min for 60 seconds. • 4. Regeneration: 2 injections of regeneration buffer at 30 μl/min for 60 seconds to regenerate the chip surface. • 5. Solvent correction: Run solvent correction at beginning and the end of the run. If run more than 6 compounds, add additional solvent correction every 6 compounds. • 6. Data fitting with built-in Biacore Evaluation Software: Steady-state fitting.

## CC1CCn2cnc3ccc(cc32)-c2cc(O)cc(c2)CC(NC(=O)C(C(C)C)N(C)C(=O)C2CN(C(=O)CCl)C2)C(=O)N2CCCC(N2)C(=O)O1 (mixture of isomers) [Compound 140]
[1]
  pEC50: 5.30 to 6.30
[2]
  pKd: < 4.82

## Cc1nc2ccc3cc2n1CC(O)COC(=O)C1CCCN(N1)C(=O)C(NC(=O)C(C(C)C)N(C)C(=O)C1CN(C(=O)CCl)C1)Cc1cc(O)cc-3c1 (mixture of isomers) [Compound 154]
[1]
  pEC50: 5.30 to 6.30
[2]
  pKd: 4.82 to 5.30

## CC1COC(=O)[C@@H]2CCCN(N2)C(=O)[C@@H](NC(=O)[C@H](C(C)C)N(C)C(=O)C2CN(C(=O)CCl)C2)Cc2cc(O)cc(c2)-c2ccc3c(C#N)cn(c3c2)C1 (single isomer, unassigned) [Compound 88]
[1]
  pEC50: 5.30 to 6.30
[2]
  pKd: < 4.82

## C=CC(=O)N1CCN([C@H](C(=O)N[C@H]2Cc3cc(O)cc(c3)-c3ccc4nccc(c4c3)OCCOC(=O)[C@@H]3CCCN(N3)C2=O)C(C)C)C1=O [Compound 2, (2S)-2-(3-acryloyl-2-oxoimidazolidin-1-yl)-N-((6^3S,4S)-2^5-hydroxy-5,7-dioxo-6^1,6^2,6^3,6^4,6^5,6^6-hexahydro-8,11-dioxa-1(6,4)-quinolina-6(1,3)-pyridazina-2(1,3)-benzenacycloundecaphane-4-yl)-3-methylbutanamide]
[1]
  pEC50: < 5.30
[2]
  pKd: ≥ 5.30

## C=CC(=O)N1CCN([C@H](C(=O)N[C@H]2Cc3cncc(c3)-c3ccc4nc(CC)n(c4c3)CCCOC(=O)[C@@H]3CCCN(N3)C2=O)C(C)C)C1=O [Compound 4, (2S)-2-(3-acryloyl-2-oxoimidazolidin-1-yl)-N-((6^3S,4S)-12-ethyl-5,7-dioxo-6^1,6^2,6^3,6^4,6^5,6^6-hexahydro-1^1H-8-oxa-1(6,1)-benzo[d]imidazola-6(1,3)-pyridazina-2(3,5)-pyridinacycloundecaphane-4-yl)-3-methylbutanamide]
[1]
  pEC50: < 5.30
[2]
  pKd: 4.82 to 5.30

## C=CC(=O)N1CCN([C@H](C(=O)N[C@H]2Cc3cc(O)cc(c3)-c3ccc4ccn(c4c3)CCCOC(=O)[C@@H]3CCCN(N3)C2=O)C(C)C)C1=O [Compound 93]
[1]
  pEC50: < 5.30
[2]
  pKd: ≥ 5.30

## C=CC(=O)N1CCN(C(C(=O)NC2Cc3cc(O)cc(c3)-c3ccc4c(C#N)cn(c4c3)CCCOC(=O)C3CCCN(N3)C2=O)C(C)C)C1=O (stereo not drawn) [Compound 94]
[1]
  pEC50: 5.30 to 6.30
[2]
  pKd: ≥ 5.30

## C=CC(=O)N1CCN([C@H](C(=O)N[C@H]2Cc3cc(O)cc(c3)-c3ccc4c(CC#N)cn(c4c3)CCCOC(=O)[C@@H]3CCCN(N3)C2=O)C(C)C)C1=O [Compound 96]
[1]
  pEC50: 5.30 to 6.30
[2]
  pKd: ≥ 5.30

## CC(C)C(C(=O)NC1Cc2cc(O)cc(c2)-c2ccc3c(C#N)cn(c3c2)CC(C)(C)COC(=O)C2CCCN(N2)C1=O)N(C)C(=O)C1CN(C(=O)CCl)C1 (stereo not drawn) [Compound 98]
[1]
  pEC50: ≥ 6.30
[2]
  pKd: 4.82 to 5.30

## CC(C)C(C(=O)NC1Cc2cc(O)cc(c2)-c2ccc3c(C#N)cn(c3c2)CCCOC(=O)C2CCCN(N2)C1=O)N(C)C(=O)C1CN(C(=O)CCl)C1 (stereo not drawn) [Compound 101]
[1]
  pEC50: 5.30 to 6.30
[2]
  pKd: ≥ 5.30

## C=CC(=O)N1CCN([C@H](C(=O)N[C@H]2Cc3cc(O)cc(c3)-c3ccc4nc(CC)n(c4c3)CCCOC(=O)[C@@H]3CCCN(N3)C2=O)C(C)C)C1=O [Compound 141]
[1]
  pEC50: 5.30 to 6.30
[2]
  pKd: ≥ 5.30

## Cc1nc2ccc3cc2n1CC(C)(C)COC(=O)[C@@H]1CCCN(N1)C(=O)[C@@H](NC(=O)[C@H](C(C)C)N(C)C(=O)CN1CC=CC1=O)Cc1cc(O)cc-3c1 [Compound 144]
[1]
  pEC50: < 5.30
[2]
  pKd: 4.82 to 5.30

## C=CC(=O)N1CC(C(=O)N(C)[C@H](C(=O)N[C@H]2Cc3cc(O)cc(c3)-c3ccc4nc(C)n(c4c3)CC(C)(C)COC(=O)[C@@H]3CCCN(N3)C2=O)C(C)C)C1 [Compound 145]
[1]
  pEC50: 5.30 to 6.30
[2]
  pKd: 4.82 to 5.30

## Cc1nc2ccc3cc2n1CC(C)(C)COC(=O)[C@@H]1CCCN(N1)C(=O)[C@@H](NC(=O)[C@H](C(C)C)N1CCN(C(=O)CCl)CC1=O)Cc1cc(O)cc-3c1 [Compound 146]
[1]
  pEC50: 5.30 to 6.30
[2]
  pKd: 4.82 to 5.30

## Cc1nc2ccc3cc2n1C[C@@H](C)COC(=O)[C@@H]1CCCN(N1)C(=O)[C@@H](NC(=O)[C@H](C(C)C)N(C)C(=O)C1CN(C(=O)CCl)C1)Cc1cc(O)cc-3c1 [Compound 148]
[1]
  pEC50: 5.30 to 6.30
[2]
  pKd: < 4.82

## Cc1nc2ccc3cc2n1CC(C)(C)COC(=O)[C@@H]1CCCN(N1)C(=O)[C@@H](NC(=O)[C@H](C(C)C)N(C)C(=O)CNC(=O)CCl)Cc1cc(O)cc-3c1 [Compound 150]
[1]
  pEC50: 5.30 to 6.30
[2]
  pKd: 4.82 to 5.30

## CC1=C(C)C(=O)N(CC(=O)N(C)[C@H](C(=O)N[C@H]2Cc3cc(O)cc(c3)-c3ccc4ncn(c4c3)CCCOC(=O)[C@@H]3CCCN(N3)C2=O)C(C)C)C1=O [Compound 153]
[1]
  pEC50: < 5.30
[2]
  pKd: 4.82 to 5.30

## CC(C)[C@@H](C(=O)N[C@H]1Cc2cc(O)cc(c2)-c2ccc3nc(-c4ccccc4C#N)n(c3c2)CCCOC(=O)[C@@H]2CCCN(N2)C1=O)N(C)C(=O)C1CN(C(=O)CCl)C1 [Compound 167]
[1]
  pEC50: 5.30 to 6.30
[2]
  pKd: ≥ 5.30

## COc1ccccc1-c1nc2ccc3cc2n1CCCOC(=O)[C@@H]1CCCN(N1)C(=O)[C@@H](NC(=O)[C@H](C(C)C)N(C)C(=O)C1CN(C(=O)CCl)C1)Cc1cc(O)cc-3c1 [Compound 168]
[1]
  pEC50: ≥ 6.30
[2]
  pKd: ≥ 5.30

## CC(C)[C@@H](C(=O)N[C@H]1Cc2cc(O)cc(c2)-c2ccc3nc(C4CCOCC4)n(c3c2)CCCOC(=O)[C@@H]2CCCN(N2)C1=O)N(C)C(=O)C1CN(C(=O)CCl)C1 [Compound 170]
[1]
  pEC50: 5.30 to 6.30
[2]
  pKd: 4.82 to 5.30

## CC1=C(C)C(=O)N(CC(=O)N(C)[C@H](C(=O)N[C@H]2Cc3cc(O)cc(c3)-c3ccc4nc(C)n(c4c3)CC(C)(C)COC(=O)[C@@H]3CCCN(N3)C2=O)C(C)C)C1=O [Compound 171]
[1]
  pEC50: 5.30 to 6.30
[2]
  pKd: 4.82 to 5.30

## C=CC(=O)N1CCN([C@H](C(=O)N[C@H]2Cc3cc(O)cc(c3)-c3ccc4c(=O)n(C)n(c4c3)CCCOC(=O)[C@@H]3CCCN(N3)C2=O)C(C)C)C1=O [Compound 174]
[1]
  pEC50: < 5.30
[2]
  pKd: ≥ 5.30

## CC(C)[C@@H](C(=O)N[C@H]1Cc2cc(O)cc(c2)-c2ccc3ncn(c3c2)CCCOC(=O)[C@@H]2CCCN(N2)C1=O)N(C)C(=O)C1CN(C(=O)CCl)C1 [Compound 234, 1-(2-chloroacetyl)-N-((2S)-1-(((6^3S,4S)-2^5-hydroxy-5,7-dioxo-6^1,6^2,6^3,6^4,6^5,6-hexahydro-1^1H-8-oxa-1(6,1)-benzo[d]imidazola-6(1,3)-pyridazina-2(1,3)-benzenacycloundecaphane-4-yl)amino)-3-methyl-1-oxobutan-2-yl)-N-methylazetidine-3-carboxamide]
[2]
  pKd: ≥ 5.30
